Measured values from patent US11766044B2, “Method for controlling PPO resistant weeds” (BASF SE, priority 2016, dated 2023).

Test system: sensitive (w.7) and resistant weeds (w.8, w.9)
Assay type: in vivo, Amaranthus tuberculatus
Details: table 3, 1 and 2 g/ha

SMILES: CCOC(=O)COc1ncccc1Oc1cc(-n2c(=O)cc(C(F)(F)F)n(C)c2=O)c(F)cc1Cl [compound (I).1]
- activity on both sensitive and resistant weeds: very good activity
